According to US20050197376A1, “Concomitant drugs” (Fujisawa Pharmaceutical Co. Ltd., priority 2004, published 2005):

Test system: type II diabetic patients
Assay: Concurrent oral administration with sulfonylurea to type II diabetic patients
Assay type: in vivo, human
Conditions: type II diabetic patients on sulfonylureas (glipizide, glyburide or glimepiride); 15 mg/day oral, concurrently with sulfonylurea, plural months

CCCCCS(=O)(=O)NC(=O)c1ccc2nc(C)n(Cc3ccc(Cl)cc3Cl)c2c1 [(3), 1-(2,4-dichlorobenzyl)-2-methyl-N-(pentylsulfonyl)-1H-benzimidazole-6-carboxamide]
HbAlc decrease: not less than 1 % point
